Tests used:
[1] = biological target: T1, adenylosuccinate lyase (cardiac muscle) (Mus musculus, UniProt P54822); conditions: bifunctional enzyme; cited from earlier work
T1 construct: the hearts and gastrocnemius muscles were excised, weighed, and homogenized to a slurry; from tissue; host or cells: mouse heart (C57BL/6J), dialyzed 10,000×g supernatant
T1 sequence (P54822 2-484 limits assumed): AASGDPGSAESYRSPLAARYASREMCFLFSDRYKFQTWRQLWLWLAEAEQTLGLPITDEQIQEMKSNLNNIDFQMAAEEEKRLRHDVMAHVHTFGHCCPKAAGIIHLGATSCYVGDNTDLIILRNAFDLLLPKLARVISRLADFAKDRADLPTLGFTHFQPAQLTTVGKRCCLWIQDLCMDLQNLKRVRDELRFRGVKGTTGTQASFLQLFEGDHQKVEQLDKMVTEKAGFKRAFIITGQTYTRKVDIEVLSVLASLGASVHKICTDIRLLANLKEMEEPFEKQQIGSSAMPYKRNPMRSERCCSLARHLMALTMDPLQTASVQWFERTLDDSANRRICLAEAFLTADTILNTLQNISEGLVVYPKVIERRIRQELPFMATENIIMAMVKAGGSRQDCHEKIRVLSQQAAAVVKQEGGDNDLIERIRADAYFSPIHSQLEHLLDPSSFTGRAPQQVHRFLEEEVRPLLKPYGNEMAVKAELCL

[2] = Serum urate concentrations after AICAriboside infusion; format: in vivo, adult mongrel dogs; conditions: following infusion of 8 mmol
Protocol: Animal Preparation--Seven adult mongrel dogs were anesthetized intramuscularly with 40 mg of morphine sulfate and intravenously with 80 mg/kg of chloralose, an endotraceal tube was inserted, and ventilation was maintained with an Emerson volume-cycled respirator and 100% oxygen. The heart was exposed through a left lateral thoracotomy, polyvinyl chloride catheters (3-mm outer diameter) were inserted into the left atrium and into the aorta through the right femoral artery, and a Statham TTQ electromagnetic flow meter probe was positioned around the ascending aorta. […] Aortic flow was measured with a Howell Instruments Series 1000 Flowmeter, and stroke volume and cardiac output were calculated from the aortic flow measurement. All hemodynamic data were monitored continuously throughout the course of the study. […]
After hemodynamic parameters had stabilized, regional myocardial blood flow was measured by injecting radioactively labled microspheres. […] Venous and arterial blood samples were also obtained at 42 min. of infusion, and regional myocardial blood flow was measured at 10 and 39 min. of AICAriboside infusion. […]
Other Methods--Serum urate was determined by the enzymatic spectrophotometric method as previously described in Liddle et al., J. Lab. […]

myocardium = assay: Regional myocardial blood flow, coronary occlusion and 24 hr reperfusion; format: in vivo, dogs; conditions: any time point
Protocol: (§1) Catheters were placed in the left atrium and aorta, and a snare positioned around the left anterior descending coronary artery in 15 open-chest dogs. Regional myocardial blood flow was measured and transmural tissue samples were obtained using known techniques. Blood flow measurements and tissue samples were obtained prior to and just before release of a 12-minute coronary occlusion. The chest was closed and the animals allowed to awaken. Twenty-four hours later, the animals were anesthetized, the chest opened, blood flow measured, and tissue samples obtained. No hemodynamic measurements were made on the animals.
(§2) In seven animals, 200 mM AICAriboside (Sigma Chemical Co.) was infused into the left atrial catether at either 14 μmol/min (n=2) or 37 μmol/min (n=5) beginning with coronary occlusion and continuing for 24 hours. Eight control animals were infused with an equal volume of saline over 24 hours.
(§3) All comparisons between AICAriboside and saline treated animals were done by unpaired analyses.

cardiovascular system [3] = system: cardiovascular system; set-up: species or system adult mongrel dogs; conditions: dog, in vivo
Protocol: Animal Preparation--Seven adult mongrel dogs were anesthetized intramuscularly with 40 mg of morphine sulfate and intravenously with 80 mg/kg of chloralose, an endotraceal tube was inserted, and ventilation was maintained with an Emerson volume-cycled respirator and 100% oxygen. The heart was exposed through a left lateral thoracotomy, polyvinyl chloride catheters (3-mm outer diameter) were inserted into the left atrium and into the aorta through the right femoral artery, and a Statham TTQ electromagnetic flow meter probe was positioned around the ascending aorta. The aortic pressure catheter was connected to a Statham P23 Db transducer (Statham Instruments, Inc., Oxnard, Calif.) with the zero reference at the midchest level. Aortic flow was measured with a Howell Instruments Series 1000 Flowmeter, and stroke volume and cardiac output were calculated from the aortic flow measurement. All hemodynamic data were monitored continuously throughout the course of the study. In 5 of the animals, the skin of the left dorsal hindlimb was opened and the gastrocnemius muscle was identified for subsequent tissue sampling.
After hemodynamic parameters had stabilized, regional myocardial blood flow was measured by injecting radioactively labled microspheres. Tissue samples were obtained from the left ventricle and from the left gastrocnemius muscle. A venous blood sample was also obtained. AICAriboside (100 mM) was then infused into the left atrium at 1.9 ml/min. Repeat tissue samples were taken from the left ventricle at 15, 30 and 42 min. of infusion, and tissue samples were taken from the gastrocnemius muscle at 30 min. of infusion. Venous and arterial blood samples were also obtained at 42 min. of infusion, and regional myocardial blood flow was measured at 10 and 39 min. of AICAriboside infusion. AICAriboside infusion was terminated after 42 min., and tissue samples were taken from the left ventricle at 10, 20, 30 and 60 min. postinfusion and from the left gastrocnemius muscle at 2,22 and 60 min. postinfusion. Venous blood samples were obtained at 10, 30 and 60 min. after AICAriboside infusion. In 4 of the 7 dogs, 400 mM formate was infused intravenously at the rate of 1.9 ml/min. for 42 min. prior to and during AICAriboside infusion. These same animals also received 6 mg of folinic acid as an intravenous bolus 30 min. prior to and 15 min. after initiating AICAriboside infusion.

Cardiac muscle = assay: Purine metabolism in normal cardiac muscle during and after AICAriboside infusion
[4] = system: skeletal muscle (gastrocnemius); assay: Purine metabolism in skeletal muscle during and after AICAriboside infusion
postischemic myocardium = assay: Nucleotide and creatine phosphate content in postischemic myocardium; format: in vivo, dogs
Protocol: as §1, §2
Nucleotide and creatine phosphate analyses were performed by high performance liquid chromatography on acid extracts of the tissue as previously described. Nucleotide analysis is described in Example 1, and creatine phosphate analysis is described in Juengling and Kammermeier, Anal. Biochem., 102, 358-361 (1980).
as §3

cardiovascular system [5] = conditions: cited from earlier work; for hemodynamic effects on the cardiovascular system: purine precursors previously used to restore ATP
[6] = biological target: T2, adenylosuccinate lyase (skeletal muscle) (Mus musculus, UniProt P54822); assay: Adenylosuccinate lyase assay, skeletal muscle enzyme; format: biochemical, C57BL/6J mice; conditions: pH 7.4, 25° C., 4 enzyme preparations, read-out: apparent Km of adenylosuccinate lyase for adenylosuccinate
T2 construct: the hearts and gastrocnemius muscles were excised, weighed, and homogenized to a slurry; from tissue; host or cells: mouse gastrocnemius muscle (C57BL/6J), dialyzed 10,000×g supernatant
T2 sequence (P54822 2-484 limits assumed): T1 sequence (P54822 2-484 limits assumed)
Protocol: (§4) Preparation and Assay of Adenylosuccinate Lyase--Six-week-old C57BL/6J mice were killed, and the hearts and gastrocnemius muscles were excised, weighed, and homogenized to a slurry in 4 volumes of 50 mM Tris-HCl, pH 7.4 at 25° C. containing 1 mM EDTA and 1 mM β-mercaptoethanol in a TenBroeck glass homogenizer. The homogenate was centrifuged at 10,000×g for 15 min and the supernatant was dialyzed against 1,000 volumes of the extraction buffer for 2 h at 4° C. The lyase activity was partially stabilized by the addition of EDTA and β-mercaptoethanol, but some activity was lost even on storage at -70° C.
(§5) The assays were carried out at pH 7.4 were reaction mixtures that contained 50 mM Tris-HCl buffer, 1 mM EDTA, 1mM β-mercaptoethanol, 20 μM adenylosuccinate, and the enzyme extract (protein concentration, 0.13-0.20 mg/ml). The decrease in absorbance at 280 nm was measured using a Gilford recording spectrophotometer. All assays were done at 25° C. and were linear with respect to time of incubation and with the amount of protein in extract added to the assay.
(§6) These are average values for experiments with 4 separate enzyme preparations. The experimental points in the double reciprocal plots were fitted to the best line by the method of least squares with all points being weighted equally.

[7] = biological target: T1, adenylosuccinate lyase (cardiac muscle); assay: Adenylosuccinate lyase assay, cardiac muscle enzyme; format: biochemical, C57BL/6J mice; conditions: pH 7.4, 25° C., 4 enzyme preparations, read-out: apparent Km of adenylosuccinate lyase for adenylosuccinate
Protocol: as §4, §5, §6

[8] = before, during or after infusion, detection limit 3 nmol/g
[9] = myocardial, throughout the study
[10] = skeletal muscle, infusion and up to 60 min thereafter
[11] = endo, preocclusion (before infusion)
[12] = epi, preocclusion (before infusion)

NC(=O)c1ncn([C@@H]2O[C@H](COP(=O)(O)O)[C@@H](O)[C@H]2O)c1N [AICAR, 5-Amino-4-imidazolecarboxamide Ribotide]
effect on both lyase activities of adenylosuccinate lyase [1]: inhibited by AICAR

NC(=O)c1ncn([C@@H]2O[C@H](CO)[C@@H](O)[C@H]2O)c1N [AICAriboside, 5-amino-4-imidazolecarboxamide riboside]
mean serum urate concentration increase [2]: 3.7 fold | regional flow versus saline group (myocardium): no differences in regional flow at any time point | Heart rate (cardiovascular system [3]): not significantly altered | aortic systolic and diastolic pressure (cardiovascular system [3]): not significantly altered | cardiac output (cardiovascular system [3]): not significantly altered | epicardial and endocardial regional blood flow (cardiovascular system [3]): not significantly altered | mean AICAriboside content of cardiac muscle, greater than that of skeletal muscle (Cardiac muscle; 30 min of infusion): 66% | uptake by myocardial cells (Cardiac muscle; Example 1): taken up rapidly by myocardial cells | Adenylosuccinate in biopsies (Cardiac muscle; [8]): not detectable | time of AICAR peak (Cardiac muscle; cardiac and skeletal muscle): peaked minutes after AICAriboside infusion was stopped | IMP content increase (Cardiac muscle; cardiac muscle): 3-4 fold | myocardial content of CTP (Cardiac muscle; cardiac muscle): no detectable change | adenylate energy charge (Cardiac muscle; cardiac muscle, 0.929±0.003 before infusion): did not vary during the course of the experiment | creatine phosphate content (Cardiac muscle; cardiac muscle, 6.8±0.4 μmol/g at beginning): did not vary significantly | TAN (total adenine nucleotide) (Cardiac muscle; cardiac muscle, 20 min postinfusion): 6.70 ± 0.10 μmol/g. wet weight | Adenosine (Cardiac muscle; cardiac muscle, during infusion): did not increase | AICAriboside concentration after infusion was stopped (Cardiac muscle; cardiac muscle, rate of decline greater than in skeletal): fell rapidly in both tissues | ADP change (Cardiac muscle; cardiac tissue, any time point): did not change significantly at any time point | AMP change (Cardiac muscle; cardiac tissue, any time point): did not change significantly at any time point | ATP content (increase to) (Cardiac muscle; cardiac tissue, from 5.55±0.17, p<0.02): 6.07±0.17 μmol/g , wet weight | accumulation of AICAriboside-TP (Cardiac muscle; cardiac versus skeletal muscle): greater in cardiac muscle | NAD+ content (Cardiac muscle; heart, did not vary throughout infusion): 0.64 ± 0.01 µmol/g | hypoxanthine content (Cardiac muscle; [9]): only minimally increased | inosine content (Cardiac muscle; [9]): only minimally increased | distribution from plasma (Cardiac muscle; similar concentrations in plasma and myocardium): readily diffuses from plasma into the interstitial space and intracellular compartments | Adenylosuccinate in biopsies [4, 8]: not detectable | AICAriboside concentration after infusion was stopped ([4]; skeletal muscle): fell rapidly in both tissues | IMP content rise ([4]; skeletal muscle): 6-7 fold | creatine phosphate content ([4]; skeletal muscle, 10.6±0.5 μmol/g at beginning): did not vary significantly | NAD+ content ([4]; skeletal muscle, did not vary throughout infusion): 0.32 ± 0.04 µmol/g | Adenosine ([4]; skeletal muscle, during infusion): did not increase | hypoxanthine content [4, 10]: consistently elevated | inosine content [4, 10]: consistently elevated | GTP content versus saline (postischemic myocardium; 24 hours reperfusion, epicardium and endocardium, P<0.003): greater in the AICAriboside group | epicardial and endocardial ATP content versus saline (postischemic myocardium; 24 hours reperfusion, previously ischemic region, P<0.001): greater in the AICAriboside group | GTP content restoration (postischemic myocardium; 24 hours, saline 82% (epi), 78% (endo) of nonischemic): restored to nonischemic levels | ATP content increase after reperfusion (postischemic myocardium; endo, 24 hours, saline group 21%): 63% | ADP (postischemic myocardium; [11]): 0.92 ± 0.03 μmol/g wet wt | AMP (postischemic myocardium; [11]): 0.066 ± 0.007 μmol/g wet wt | CP (creatine phosphate) (postischemic myocardium; [11]): 6.8 ± 0.7 μmol/g wet wt | CTP (postischemic myocardium; [11]): 0.055 ± 0.001 μmol/g wet wt | IMP (postischemic myocardium; [11]): 0.004 ± 0.001 μmol/g wet wt | NAD (postischemic myocardium; [11]): 0.058 ± 0.04 μmol/g wet wt | UTP (postischemic myocardium; [11]): 0.132 ± 0.004 μmol/g wet wt | ATP content increase after reperfusion (postischemic myocardium; epi, 24 hours, saline group 2%): 41% | ADP (postischemic myocardium; [12]): 0.87 ± 0.03 μmol/g wet wt | AMP (postischemic myocardium; [12]): 0.064 ± 0.016 μmol/g wet wt | CP (creatine phosphate) (postischemic myocardium; [12]): 7.7 ± 0.6 μmol/g wet wt | IMP (postischemic myocardium; [12]): 0.005 ± 0.002 μmol/g wet wt | NAD (postischemic myocardium; [12]): 0.060 ± 0.02 μmol/g wet wt | UTP (postischemic myocardium; [12]): 0.122 ± 0.005 μmol/g wet wt | ATP percentage drop during ischemia versus saline (postischemic myocardium; occlusion): comparable in both groups | AMP or ADP content versus saline (postischemic myocardium; postischemic region): no detectable differences | CTP content versus saline (postischemic myocardium; postischemic region): no statistically significant differences | NAD+ content versus saline (postischemic myocardium; postischemic region): no statistically significant differences | Total adenine nucleotide content versus saline (postischemic myocardium; postischemic region): also greater in the AICAriboside group | UTP content versus saline (postischemic myocardium; postischemic region): no statistically significant differences

Nc1ncnc2c1ncn2[C@@H]1O[C@H](CO)[C@@H](O)[C@H]1O [adenosine]
hemodynamic status of the animal (cardiovascular system [5]; adenosine administration): profound changes | hemodynamic effects on the cardiovascular system (cardiovascular system [5]): deleterious hemodynamic effects

O=C(O)C[C@H](Nc1ncnc2c1ncn2[C@@H]1O[C@H](COP(=O)(O)O)[C@@H](O)[C@H]1O)C(=O)O [adenylosuccinate]
Km [6]: 4.5 ± 1.5 µM | Km [7]: 2.2 ± 0.3 µM

O=c1[nH]cnc2nc[nH]c12 [hypoxanthine]
hemodynamic effects on the cardiovascular system (cardiovascular system [5]): deleterious hemodynamic effects

OC[C@H]1O[C@@H](n2cnc3c(O)ncnc32)[C@H](O)[C@@H]1O [inosine]
hemodynamic effects on the cardiovascular system (cardiovascular system [5]): deleterious hemodynamic effects

Source: patent USRE34387E, “Method for restoring depleted purine nucleotide pools” (priority 1988, dated 1993)
